# Experimental data reported in patent US20250345318A1, “COMPOUND AND USE THEREOF IN PREVENTING OR TREATING RADIATION DAMAGE” (SIMCERE PHARMACEUTICAL CO., LTD., priority 2022, published 2025).
# Tests used:
# C57BL/6 male mice [1] = assay: Blood biochemistry after total body irradiation (Example 3); type: in vivo
# Protocol: C57BL/6 male mice (24.8±1,6 g in body weight) aged 10 weeks were divided into 4 groups of 8 mice each. After acclimating to the environment, JAC4 (100 mg/kg) or an equal volume of vehicle (polyethylene glycol:ethanol:physiological saline=47.5:7.5:50, v/v/v) was orally administered to the mice once daily for 7 consecutive days. After that, the mice in one JAC4 treatment group and one vehicle group were subjected to total body X-ray irradiation (6 Gy) and JAC4 or vehicle treatment was continued. After 3 days, the administration of JAC4 or vehicle was discontinued, and blood samples, small intestine tissues, and thymus and spleen tissues were collected 4 days later.
# The biochemical results of the mice were tested, with procedures as follows: Peripheral blood was collected from the orbit into an ethylenediaminetetraacetic acid K3 tube, followed by immediate blood biochemistry analysis on a blood analyzer.
# BEAS-2B cells = assay: Plate colony formation, BEAS-2B (Example 22); type: cell-based, human
# Protocol: The cell proliferation capacity was determined by a plate colony formation experiment, with the following specific procedures.
# (§1) 1. SPCA-1 and BEAS-2B cells (or SPCA-1 and BEAS-2B cells transfected with JWA-knockdown plasmids) in the exponential growth phase were plated in 6-well plates at a specific amount. The number of plated cells is as follows
# (§2) 2. After the cells adhered to the container wall, the cells were treated (or not treated) with […] JAC4 and treated with X-ray of 0, 2, 4, or 6 Gy. The medium was replaced with a fresh medium containing JAC4 at the corresponding concentration once every 2 days (or the cells were treated with X-ray of 0, 2, 4, or 6 Gy after adhesion, and the medium was replaced with a fresh medium once every 2 days).
# (§3) 3. After the cells were cultured for 10-14 days, colonies were visually observed. The culture medium was discarded, and the cells were fixed with methanol for 10-20 min, stained with crystal violet for 10 min, slowly washed with flowing clear water thrice, photographed, and counted for colonies containing>50 cells.
# 4. The colony forming efficiency (CFE)=(number of colonies formed/number of seeded cells) 100% was calculated, and the cell survival fraction (SF)=(colony forming efficiency of treatment group/colony forming efficiency of 0 Gy group)×100% was calculated from the colony forming efficiency.
# IEC-6 cells [2] = assay: γ-H2AX immunofluorescence in irradiated IEC-6 cells (Example 13); type: cell-based; settings: JAC4 + radiation
# Protocol: The cell immunofluorescent images of γ-H2AX in different treatment groups were recorded after the IEC-6 cells were irradiated, and the mean fluorescence intensity of individual cells (***p<0.001) was measured using Image J. The results are shown in FIG. 19.
# IEC-6 cells [3] = assay: Colocalization of cytochrome C and mitochondria in irradiated IEC-6 cells (Example 13); type: cell-based; settings: 1 μM JAC4 24 h pretreatment + 12 Gy, 24 h after
# Protocol: The effect was explored in a small intestinal epithelial IEC-6 cell in-vitro radiation model.
# Formulation of JAC4 (1 μM or 10 μM): 5 mg of JAC4 was added to 1527 μL of DMSO to prepare a 10 mM stock solution, which was then serially diluted into 2 mM and 200 μM stock solutions.
# 10 μL of 200 μM stock solution was added into 90 μL of complete culture medium. The 100-μL mixture was uniformly mixed before 900 μL of complete culture medium was added, and uniformly mixed again before 1 mL of complete culture medium was added. The mixture was again uniformly mixed and then added into a six-well plate to give 1 μM JAC4.
# Control wells: 10 μL of DMSO was added into 90 μL of complete culture medium. The 100-μL mixture was uniformly mixed before 900 μL of complete culture medium was added, and uniformly mixed again before 1 mL of complete culture medium was added. The mixture was again uniformly mixed and then added into a six-well plate.
# IEC-6 cells were pretreated for 24 h with 1 μM JAC4 or DMSO and subjected to radiation (12 Gy) treatment. After 24 h, colocalized cell immunofluorescent images of mitochondrial cytochrome C staining and mitochondria staining were acquired and subjected to fluorescent colocalization analysis using the Image J software to give colocalization correlation coefficients (***p<0.001) of cytochrome C and mitochondria in IEC-6 cells after different treatments.
# IEC-6 cells [4] = assay: Early apoptosis by Annexin V-PI staining in irradiated IEC-6 cells (Example 13); type: cell-based; settings: 1 μM JAC4 24 h + 12 Gy X-ray, 24 h after
# Protocol: The apoptosis of IEC-6 cells was determined by Annexin V-PI staining and the early apoptosis rates of IEC-6 cells after different treatments were summarized (***p<0.001). The procedures for the detection by Annexin V-PI staining are as follows: IEC-6 cells were seeded in a 6-well plate at 2×10^5 cells/well. After adhesion, the cells were treated with 1 μM JAC4 or DMSO for 24 h and subjected to 12 Gy of X-ray radiation. After 24 h, the cells were harvested in PBS and analyzed using the Annexin V apoptosis detection kit (BD, FACS AriaIII, USA) on a flow cytometer.
# [5] = test system: SPCA-1 cells transfected with JWA-knockdown plasmids; assay: Colony formation of SPCA-1 cells transfected with JWA-knockdown plasmids (Example 22); type: cell-based, human; settings: JAC4-treated JWA-knockdown SPCA-1 vs JAC4-treated si-Control
# Protocol: as §1, §2, §3
# 4. The colony forming efficiency (CFE)=(number of colonies formed/number of seeded cells) 100% was calculated, and the cell survival fraction (SF)=(colony forming efficiency of treatment group/colony forming efficiency of 0 Gy group)×100% was calculated from the colony forming efficiency. […]
# C57BL/6 male mice [6] = assay: Prophylactic JAC4 administration, total body X-ray irradiation, small intestine villus length (Example 6); type: in vivo
# Protocol: C57BL/6 male mice (24.8±1.6 g in body weight) aged 10 weeks were divided into 4 groups. JAC4 (100 mg/kg) or an equal volume of vehicle (polyethylene glycol:ethanol:physiological saline=47.5:7.5:50, v/v/v) was orally administered to the mice once daily for 7 consecutive days. After that, the mice were subjected to total body X-ray irradiation (6 Gy) and JAC4 or vehicle treatment was discontinued. After 7 days, the small intestine tissues were collected for HE staining and inspection, and the small intestine villus length was measured in all groups and statistically analyzed. The specific procedures are as follows: 3 mice were randomly selected from each group for statistical analysis of their small intestine tissue HE staining images, and for each mouse, 6 fields of view were randomly selected for inspection (*** p<0.001).
# [7] = non-radiation, JAC4 100 mg/kg oral
compound,measurement,setting,value
c1ccc(CSc2nnc(C3COc4ccccc4O3)o2)nc1 (stereo not drawn) [JAC4],ALT,C57BL/6 male mice [1]; JAC4 100 mg/kg oral + TBI 6 Gy,31.33±3.14 U/L
same,AST,C57BL/6 male mice [1]; JAC4 100 mg/kg oral + TBI 6 Gy,110.17±20.86 U/L
same,CK-MB,C57BL/6 male mice [1]; JAC4 100 mg/kg oral + TBI 6 Gy,437.67±90.38 U/L
same,LDH,C57BL/6 male mice [1]; JAC4 100 mg/kg oral + TBI 6 Gy,888.67±81.48 U/L
same,SOD,C57BL/6 male mice [1]; JAC4 100 mg/kg oral + TBI 6 Gy,133.00±6.96 U/mL
same,ALT,C57BL/6 male mice [1]; [7],47.17±14.81 U/L
same,AST,C57BL/6 male mice [1]; [7],140.83±38.72 U/L
same,CK-MB,C57BL/6 male mice [1]; [7],565.50±261.37 U/L
same,LDH,C57BL/6 male mice [1]; [7],444.00±94.58 U/L
same,cell survival (radiosensitization curve),BEAS-2B cells; 10 μM JAC4 + X-ray vs X-ray monotherapy,slightly increased
same,number of colonies formed,BEAS-2B cells; JAC4 in combination with X-ray,increased
same,mean fluorescence intensity of γ-H2AX,IEC-6 cells [2],26.00±1.79
same,fluorescent colocalization correlation coefficient of the mitochondria and cytochrome C,IEC-6 cells [3],0.73±0.02
same,early apoptosis rate (Annexin V-PI),IEC-6 cells [4],5.74±0.80%
same,cell survival rate (radiosensitization curve),[5],significantly increased
same,number of colonies formed,[5],significantly higher
same,small intestine villus length,"C57BL/6 male mice [6]; JAC4 100 mg/kg oral 7 days pretreatment, then TBI 6 Gy, tissue 7 days later",277.64±33.55 μm
same,small intestine villus length,"C57BL/6 male mice [6]; non-radiation, JAC4 100 mg/kg oral 7 days",306.54±14.00 μm
